Measured values taken from patent publication US12351580B2, “NLRP3 modulators” (Innate Tumor Immunity, Inc., priority 2017, dated 2025).

The compounds below were run against T1, hNLRP3 (Homo sapiens, UniProt Q96P20) (assay: Measurement of IL-1β production in PMA-differentiated THP-1 cells (hNLRP3 agonist; ELISA, alternative and hTRF procedures)).
T1 construct: THP-1 cells were purchased from the American Type Culture Collection; host or cells: THP-1 cells, PMA-differentiated
T1 sequence (Q96P20 whole entry): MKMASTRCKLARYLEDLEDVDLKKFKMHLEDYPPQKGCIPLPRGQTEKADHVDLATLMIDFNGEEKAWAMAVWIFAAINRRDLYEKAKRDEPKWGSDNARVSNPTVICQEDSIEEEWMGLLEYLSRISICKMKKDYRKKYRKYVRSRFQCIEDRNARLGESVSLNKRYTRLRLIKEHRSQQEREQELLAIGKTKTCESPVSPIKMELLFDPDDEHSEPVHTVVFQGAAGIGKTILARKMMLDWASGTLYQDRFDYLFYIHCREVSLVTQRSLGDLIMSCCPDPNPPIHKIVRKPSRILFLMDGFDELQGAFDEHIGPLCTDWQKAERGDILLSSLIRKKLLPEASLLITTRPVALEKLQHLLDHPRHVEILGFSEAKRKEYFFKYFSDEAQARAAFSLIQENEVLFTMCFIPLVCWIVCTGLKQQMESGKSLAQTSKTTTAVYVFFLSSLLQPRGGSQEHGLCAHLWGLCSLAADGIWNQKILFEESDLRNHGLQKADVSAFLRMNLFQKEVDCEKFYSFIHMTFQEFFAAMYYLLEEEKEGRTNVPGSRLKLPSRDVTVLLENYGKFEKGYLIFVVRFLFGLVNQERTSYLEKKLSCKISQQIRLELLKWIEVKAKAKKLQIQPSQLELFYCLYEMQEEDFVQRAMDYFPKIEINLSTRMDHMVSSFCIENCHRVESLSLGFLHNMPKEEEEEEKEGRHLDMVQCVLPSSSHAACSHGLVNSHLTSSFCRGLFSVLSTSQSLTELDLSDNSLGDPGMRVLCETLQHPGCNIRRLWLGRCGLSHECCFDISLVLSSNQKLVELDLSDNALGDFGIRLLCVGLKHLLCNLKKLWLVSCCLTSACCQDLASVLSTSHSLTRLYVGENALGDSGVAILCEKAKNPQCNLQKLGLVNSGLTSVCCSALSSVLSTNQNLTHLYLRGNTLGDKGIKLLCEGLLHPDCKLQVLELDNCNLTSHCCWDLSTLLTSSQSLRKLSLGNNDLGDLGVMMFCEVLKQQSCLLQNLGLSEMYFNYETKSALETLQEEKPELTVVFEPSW
Type: cell-based
In short: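 PMA-differentiated THP-1 cells (PMA […] 24 h, 20 μg/ml overnight, or 50 ng/ml overnight, by procedure) replated in RPMI with 2% FBS and exposed to compound (e.g. 100–0.1 μM, 1% DMSO; hTRF format top 10 μM) for 4 h, 2 h, or 2 h respectively. Supernatant IL-1β measured by ELISA, or by hTRF with antibodies diluted 1:40.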
`CN(Cc1nc2c(N)nc3cc(-c4cc[nH]n4)ccc3c2[nH]1)C(=O)CN` [Compound 372] gave an EC50 of 8.3 µM.
For `Nc1nc2cc(-c3cc[nH]n3)ccc2c2[nH]c(CN3C(=O)OCC3c3ccccc3)nc12` (stereo not shown) [Compound 363], the EC50 was 5.8 µM.
`CN(C)C(=O)N(C)Cc1nc2c(N)nc3cc(-c4cc[nH]n4)ccc3c2[nH]1` [Compound 375] was tested, and the EC50 was 2.4 µM.
In the case of `CC(c1nc2c(N)nc3cc(-n4cccn4)ccc3c2[nH]1)N1CCCC1=O` (stereo not shown) [Compound 117], the EC50 is reported as 1.26 µM.
`CCN(Cc1nc2c(N)nc3cc(Br)ccc3c2n1CC(C)C)C(C)=O` [Compound 430] showed an EC50 of 7.45 µM.
Compound `Nc1nc2cc(-c3cc[nH]n3)ccc2c2[nH]c(CN3CCOC3=O)nc12` [Compound 365] has an EC50 of 5 µM.
In the case of `COc1ccc(Cn2c(CN3C(=O)OCC3COCc3ccccc3)nc3c(N)nc4cc(-c5cc[nH]n5)ccc4c32)cc1` (stereo not shown) [Compound 404], the EC50 is reported as 2.5 µM.
For `CCN(Cc1nc2c(N)nc3cc(-c4cc[nH]n4)ccc3c2[nH]1)C(=O)c1cccnc1` [Compound 438, N-{[4-amino-7-(1H-pyrazol-3-yl)-1H-imidazo[4,5-c]quinolin-2-yl]methyl}-N-ethylpyridine-3-carboxamide], the EC50 was 4.2 µM.
`CCN(Cc1nc2c(N)nc3cc(-c4cc[nH]n4)ccc3c2[nH]1)C(=O)c1ccc(OC)cc1` [Compound 441, N-{[4-amino-7-(1H-pyrazol-3-yl)-1H-imidazo[4,5-c]quinolin-2-yl]methyl}-N-ethyl-4-methoxybenzamide] was tested, and the EC50 was 0.69 µM.
Compound `CCN(Cc1nc2c(N)nc3cc(-c4cc[nH]n4)ccc3c2[nH]1)C(=O)CC(C)(C)O` [Compound 440, N-{[4-amino-7-(1H-pyrazol-3-yl)-1H-imidazo[4,5-c]quinolin-2-yl]methyl}-N-ethyl-3-hydroxy-3-methylbutanamide] has an EC50 of 18.4 µM.
`CCNCc1nc2c(N)nc3cc(-n4cccn4)ccc3c2[nH]1` [Compound 398] was tested, and the EC50 was 1.22 µM.
For `CCN(Cc1nc2c(N)nc3cc(-c4cc[nH]n4)ccc3c2[nH]1)C(=O)Cc1ccccc1` [Compound 443, N-{[4-amino-7-(1H-pyrazol-3-yl)-1H-imidazo[4,5-c]quinolin-2-yl]methyl}-N-ethyl-2-phenylacetamide], the EC50 was 0.86 µM.
In the case of `CCN(Cc1nc2c(N)nc3cc(-c4cc[nH]n4)ccc3c2[nH]1)C(=O)CCCc1ccccc1` [Compound 444, N-{[4-amino-7-(1H-pyrazol-3-yl)-1H-imidazo[4,5-c]quinolin-2-yl]methyl}-N-ethyl-4-phenylbutanamide], the EC50 is reported as 0.93 µM.
With `CCN(Cc1nc2c(N)nc3cc(-c4ccsc4)ccc3c2[nH]1)C(C)=O` [Compound 419, N-((4-Amino-7-(thiophen-3-yl)-1H-imidazo[4,5-c]quinolin-2-yl)methyl)-N-ethylacetamide] the EC50 was 0.91 µM.
With `Nc1nc2cc(-c3cccnc3Cl)ccc2c2[nH]c(CN3CCCC3=O)nc12` [Compound 320, 1-[[4-amino-7-(2-chloropyridin-3-yl)-1H-imidazo[4,5-c]quinolin-2-yl]methyl]pyrrolidin-2-one] the EC50 was 1.5 µM.
With `Nc1nc2cc(-c3cnccc3Cl)ccc2c2[nH]c(CN3CCCC3=O)nc12` [Compound 321, 1-[[4-amino-7-(4-chloropyridin-3-yl)-1H-imidazo[4,5-c]quinolin-2-yl]methyl]pyrrolidin-2-one] the EC50 was 4.5 µM.
In the case of `CCN(Cc1nc2c(N)nc3cc(-c4cc[nH]n4)ccc3c2[nH]1)C(=O)c1ccncc1` [Compound 450, N-{[4-amino-7-(1H-pyrazol-3-yl)-1H-imidazo[4,5-c]quinolin-2-yl]methyl}-N-ethylpyridine-4-carboxamide], the EC50 is reported as 4.5 µM.
Compound `COC(=O)CCCn1c(CN2CCCC2=O)nc2c(N)nc3cc(-c4cccnc4)ccc3c21` [Compound 342] has an EC50 of 3.3 µM.
`CCN(Cc1nc2c(N)nc3cc(-c4cc[nH]n4)ccc3c2[nH]1)C(=O)CCc1ccccc1` [Compound 447, N-{[4-amino-7-(1H-pyrazol-3-yl)-1H-imidazo[4,5-c]quinolin-2-yl]methyl}-N-ethyl-3-phenylpropanamide] gave an EC50 of 1.5 µM.
Work on `CCN(Cc1nc2c(N)nc3cc(Br)ccc3c2n1CCCOC)C(C)=O` [Compound 431] yielded an EC50 of 8.67 µM.
`CCN(Cc1nc2c(N)nc3cc(-c4cc[nH]n4)ccc3c2[nH]1)C(=O)c1ccccc1Cl` [Compound 449, N-{[4-amino-7-(1H-pyrazol-3-yl)-1H-imidazo[4,5-c]quinolin-2-yl]methyl}-2-chloro-N-ethylbenzamide] gave an EC50 of 0.9 µM.
With `CN(Cc1nc2c(N)nc3cc(-c4cc[nH]n4)ccc3c2[nH]1)C(=O)CO` [Compound 370] the EC50 was 4.8 µM.
For `CN(Cc1nc2c(N)nc3cc(-c4cc[nH]n4)ccc3c2[nH]1)C(=O)c1nccs1` [Compound 377], the EC50 was 4.3 µM.
For `CCC(=O)NCc1nc2c(N)nc3cc(-c4cc[nH]n4)ccc3c2[nH]1` [Compound 111], the EC50 was 0.72 µM.
Compound `CN(C)C(=O)CCCn1c(CN2CCCC2=O)nc2c(N)nc3cc(-c4cccnc4)ccc3c21` [Compound 340] has an EC50 of 50 µM.
